# Active and inactive are the calls of the source. The rule behind the calls is not given here.
# Columns and labels:
# [1] = tested on: Escherichia coli; test: Antibacterial activity against Escherichia coli JW0451 harboring AcrB gene deletion mutant by alamar blue reagent based micro dilution broth assay; assay type: functional, organism-based
# [2] = tested on: Escherichia coli; test: Antibacterial activity against Escherichia coli NR698 harboring imp gene deletion mutant by alamar blue reagent based micro dilution broth assay; assay type: functional
# [3] = tested on: Staphylococcus aureus; test: microbe, parasite or virus in culture; details: ATCC 43300, 18 h
# [4] = Cytotoxicity against HDF at 100 uM after 4 hrs by alamar blue assay; details: human
# [5] = tested on: Escherichia coli; test: Antibacterial activity against Escherichia coli harboring emrB gene deletion mutant by alamar blue reagent based micro dilution broth assay; assay type: functional, organism-based
# [6] = tested on: Escherichia coli; test: Antibacterial activity against Escherichia coli harboring macB gene deletion mutant by alamar blue reagent based micro dilution broth assay; assay type: functional, organism-based
# [7] = tested on: Staphylococcus aureus; test: Bactericidal activity against Staphylococcus aureus ATCC 43300; assay type: functional, organism-based
# [8] = Cytotoxicity against human MCF10A cells after 4 hrs by alamar blue assay; assay type: cell-based; details: MCF-10A
# [9] = tested on: HepG2; test: Cytotoxicity against human HepG2 cells at 100 uM after 4 hrs by alamar blue assay; assay type: cell-based; details: hepg2, 4 h
# [10] = tested on: Escherichia coli; test: Antibacterial activity against Escherichia coli ATCC 25922 by alamar blue reagent based micro dilution broth assay; assay type: functional
# [11] = tested on: Escherichia coli; test: Antibacterial activity against Escherichia coli harboring acrF gene deletion mutant by alamar blue reagent based micro dilution broth assay; assay type: functional, organism-based
# [12] = tested on: Escherichia coli; test: Antibacterial activity against Escherichia coli harboring efflux pump deletion mutant after 8 hrs; assay type: functional
# [13] = tested on: Escherichia coli; test: Antibacterial activity against Escherichia coli W4573 after 8 hrs; assay type: functional; details: W4573, 8 h
# [14] = tested on: Escherichia coli; test: Antibacterial activity against Escherichia coli harboring ompC gene deletion mutant by alamar blue reagent based micro dilution broth assay; assay type: functional
# [15] = tested on: Escherichia coli; test: Antibacterial activity against Escherichia coli harboring ompF gene deletion mutant by alamar blue reagent based micro dilution broth assay; assay type: functional
# [16] = tested on: Staphylococcus aureus; test: Antibacterial activity against methicillin-resistant Staphylococcus aureus by agar dilution method; assay type: functional
# [17] = Ratio of MIC for Escherichia coli ATCC 25922 to MIC for Escherichia coli NR698 harboring imp gene deletion mutant; assay type: functional
# [18] = Primary phase half life in mouse liver microsomes at 0.5 ug/ml in presence of NADPH by UPLC analysis; assay type: ADME; details: read-out: alphat1/2
# [19] = tested on: HepG2; test: Cytotoxicity against human HepG2 cells after 4 hrs by alamar blue assay; assay type: cell-based; details: HepG2, 4 h
# [20] = Therapeutic index, ratio of IC50 for human HepG2 cells to MIC for Staphylococcus aureus ATCC 43300; assay type: cell-based; details: read-out: TI
# [21] = molecular target: Cytochrome P450 2D6 (Homo sapiens, UniProt P10635); test: Inhibition of human CYP2D6 using AMMC as substrate assessed as reduction in 3-[-2-(N,Ndiethylamino)ethyl]-7-hydroxy-4-methylcoumarin hydrochloride metabolite formation incubated for 30 mins by high throughput assay; assay type: ADME; details: read-out: INH
# Chain of Cytochrome P450 2D6 (P10635 whole entry): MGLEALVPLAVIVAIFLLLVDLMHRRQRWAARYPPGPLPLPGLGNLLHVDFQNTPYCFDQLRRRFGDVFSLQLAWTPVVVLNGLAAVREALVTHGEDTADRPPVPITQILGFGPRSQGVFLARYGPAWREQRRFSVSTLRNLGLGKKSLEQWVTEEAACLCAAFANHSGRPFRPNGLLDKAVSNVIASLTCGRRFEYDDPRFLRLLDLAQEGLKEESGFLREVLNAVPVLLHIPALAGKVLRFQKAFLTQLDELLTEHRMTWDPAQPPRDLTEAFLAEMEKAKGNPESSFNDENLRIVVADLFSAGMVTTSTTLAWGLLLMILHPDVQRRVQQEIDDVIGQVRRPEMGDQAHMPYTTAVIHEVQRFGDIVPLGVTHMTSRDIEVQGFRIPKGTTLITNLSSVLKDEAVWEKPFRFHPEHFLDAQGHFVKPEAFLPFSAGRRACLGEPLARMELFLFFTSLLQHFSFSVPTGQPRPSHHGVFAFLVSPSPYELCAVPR
# [22] = molecular target: Cytochrome P450 3A4 (Homo sapiens, UniProt P08684); test: Inhibition of human CYP3A4 using BQ as substrate assessed as reduction in 7-hydroxyquinoline metabolite formation incubated for 30 mins by high throughput assay; assay type: ADME; details: read-out: INH
# Chain of Cytochrome P450 3A4 (P08684 whole entry): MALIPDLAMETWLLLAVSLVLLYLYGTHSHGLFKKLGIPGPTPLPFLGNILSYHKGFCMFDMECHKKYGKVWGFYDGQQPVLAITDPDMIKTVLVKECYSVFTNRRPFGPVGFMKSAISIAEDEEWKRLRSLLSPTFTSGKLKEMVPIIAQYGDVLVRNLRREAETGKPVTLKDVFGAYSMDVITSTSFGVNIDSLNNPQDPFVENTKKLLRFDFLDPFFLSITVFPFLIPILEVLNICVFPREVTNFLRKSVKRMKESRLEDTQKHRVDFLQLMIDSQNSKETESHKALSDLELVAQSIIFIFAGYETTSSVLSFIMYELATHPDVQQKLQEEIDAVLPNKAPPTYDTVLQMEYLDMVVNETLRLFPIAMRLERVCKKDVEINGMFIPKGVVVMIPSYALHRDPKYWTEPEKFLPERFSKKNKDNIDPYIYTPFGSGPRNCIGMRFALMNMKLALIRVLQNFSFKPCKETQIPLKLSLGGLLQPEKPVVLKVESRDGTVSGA
# [23] = Therapeutic index, ratio of IC50 for human MCF10 cells to MIC for Staphylococcus aureus ATCC 43300; assay type: cell-based; details: read-out: TI
# [24] = Cytotoxicity against HDF after 4 hrs by alamar blue assay; details: Homo sapiens
# [25] = Therapeutic index, ratio of IC50 for HDF to MIC for Staphylococcus aureus ATCC 43300; details: human, read-out: TI
# [26] = Terminal half life in mouse liver microsomes at 0.5 ug/ml in presence of NADPH by UPLC analysis; assay type: ADME; details: read-out: beta t1/2
# [27] = Therapeutic index, ratio of IC50 for human MCF10A cells to MIC for Staphylococcus aureus ATCC 43300; assay type: cell-based, MCF-10A; details: read-out: TI
# [28] = tested on: Escherichia coli; test: microbe, parasite or virus in culture
Compound,Activity [1],MIC [2] [µg/mL],MIC [3] [µg/mL],Activity [4],Activity [5],Activity [6],Activity [7],IC50 [8] [µM],Activity [9],MIC [10] [µg/mL],Activity [11],Ratio [17],also measured
CCc1nc(N)nc(N)c1C#C[C@H](C)c1cc(OC)cc(-c2ccc(C(=O)O)cc2)c1,Active,0.0024,0.0098,Non-toxic,Active,Active,Active,> 100,Non-toxic,10,Active,–,–
CN(Cc1cnc2nc(N)nc(N)c2n1)c1ccc(C(=O)N[C@@H](CCC(=O)O)C(=O)O)cc1 [METHOTREXATE],–,40,> 40,–,–,–,–,–,–,> 40,–,–,MIC [12]: 64 µM; MIC [13]: 1000 µM; MIC [14]: ≥ 40 µg/mL; MIC [15]: ≥ 40 µg/mL; MIC50 [16]: 20 µg/mL; MIC90 [16]: 100 µg/mL
CCc1nc(N)nc(N)c1C#CCc1cc(-c2cccc(C(=O)O)c2)ccc1OC.O=C(O)C(F)(F)F,Active,0.0391,0.625,Non-toxic,Active,Active,–,–,Non-toxic,> 20,Active,2000,–
CC(=O)O.CCc1nc(N)nc(N)c1C#C[C@@H](C)c1cc(-c2ccc(C(=O)O)cc2)ccc1OC,Active,0.0012,0.0195,Non-toxic,Active,Active,–,> 100,Non-toxic,20,Active,–,–
CCc1nc(N)nc(N)c1C#CCc1cc(OC)cc(-c2ccc(C(=O)O)cc2)c1.O=C(O)C(F)(F)F,Active,0.0049,0.0195,Non-toxic,Active,Active,Active,> 100,Non-toxic,> 20,Active,–,–
CCc1nc(N)nc(N)c1C#C[C@@H](C)c1cc(OC)cc(-c2ccc(C(=O)O)cc2)c1,Active,0.0024,0.0098,Non-toxic,Active,Active,Active,> 100,Non-toxic,10,Active,–,–
CCc1nc(N)nc(N)c1C#CCc1cc(-c2ccc(C(=O)O)cc2)ccc1OC,Active,0.0098,0.0195,–,Active,Active,–,> 100,–,> 20,Active,2000,half-life at 0.5 ug/ml [18]: 1.65 h; IC50 [19]: > 500 µM; selectivity ratio [20]: > 500000; IC50 [21]: > 50 µM; IC50 [22]: > 50 µM; selectivity ratio [23]: > 500000; IC50 [24]: > 500 µM; selectivity ratio [25]: > 500000; half-life at 0.5 ug/ml [26]: 1.45 h; selectivity ratio [27]: > 500000
COc1cc(Cc2cnc(N)nc2N)cc(OC)c1OC [TRIMETHOPRIM],–,0.0098,–,–,–,–,–,–,–,0.312,–,–,MIC [28]: 0.312 µg/mL
CC(=O)O.CCc1nc(N)nc(N)c1C#C[C@H](C)c1cc(-c2ccc(C(=O)O)cc2)ccc1OC,Active,0.0391,0.625,Non-toxic,Active,Active,–,> 100,Non-toxic,> 20,Active,–,–
CCc1nc(N)nc(N)c1C#CCc1cc(-c2ccccc2C(=O)O)ccc1OC,Active,20,> 20,Non-toxic,Active,Active,–,–,Non-toxic,> 32,Active,2000,–
